Results on 29 molecules are retold here after patent publication US20240132463A1, “SUBSTITUTED N-(2-(2,6-DIOXOPIPERIDIN-3-YL)-1,3-DIOXOISOINDOLIN-5-YL)ARYLSULFONAMIDE ANALOGS AS MODULATORS OF CEREBLON PROTEIN” (ST. JUDE CHILDREN'S RESEARCH HOSPITAL, INC., priority 2020, published 2024).

For orientation: IC50 means the concentration that inhibits the measured activity by half.

Each structure is given as a SMILES string.

One experiment addresses 6×His-CRBN-DDB1 protein (Homo sapiens (Human), UniProt Q96SW2). Description: CRBN fluorescence polarization assay. In kind it is binding. The following applies: cereblon binding, class symbols; read-out: CRBN FP IC50. How it is done:
6×His-CRBN-DDB1 protein (200 nM) and Cy5-O-Len probe (30 nM) were combined in 20 mM HEPES pH 7, 150 mM NaCl, 0.005% Tween-20 assay buffer. […] The plates were incubated in the dark for 1 hour at room temperature and then read on an Envision plate reader (PerkinElmer, Massachusetts, USA).

The target of the next experiment is GSPT1 HiBiT tag protein (Homo sapiens (Human), UniProt P15170+Q96SW2). Description: hGSPT1 HiBiT assay. Type of experiment: cell-based. The following applies: HEK293 hGSPT1 HiBiT cells, 4 hrs incubation; read-out: GSPT1 HiBit EC50. How it is done:
hGSPT1 HiBiT cell line. HEK293_hGSPT1_HiBiT tagged cells were generated using CRISPR-Cas12a technology. Briefly, ˜400,000 HEK293 cells were transiently co-transfecting with precomplexed ribonuclear proteins (RNPs) consisting of […] of crRNA (IDT), 62 pmol of Cas12a protein (IDT), 3 ug of ssODN donor (IDT; AltR™ modifications), 78 pmol of electroporation enhancer (IDT), and 200 ng of pMaxGFP (Lonza). The transfection was performed via nucleofection (Lonza, 4D-Nucleofector™ X-unit) using solution P3 and program CM-130 in a small (20 ul) cuvette according to the manufacturer's recommended protocol. Five days post-nucleofection, cells were single cell sorted for GFP+(transfected) cells by FACs in 96-well plates and clonally selected. Clones were screened and verified for the desired modification via targeted deep sequencing using gene specific primers with partial Illumina adapter overhangs as previously described.^58 In brief, clonal cell pellets were harvested, lysed and used to generate gene specific amplicons with partial Illumina adapters in PCR #1. Amplicons were indexed in PCR #2 and pooled with other targeted amplicons for other loci to create sequence diversity. Additionally, 10% PhiX Sequencing Control V3 (Illumina) was added to the pooled amplicon library prior to running the sample on an Miseq Sequencer System (Illumina) to generate paired 2×250 bp reads. […] Editing construct sequences and screening primers are listed below in Table 4.
hGSPT1 HiBiT assay. […] After 4 hrs incubation, the level of GSPT1 HiBiT tag protein was evaluated using Nano-Glo® HiBiT Lytic Detection System (Promega) according to the manufacturer's instruction.
For orientation: HiBiT is a short tag that completes a luciferase, so light tracks the accessible tagged protein.

6×His-CRBN-DDB1 protein, sequence (Q96SW2 whole entry): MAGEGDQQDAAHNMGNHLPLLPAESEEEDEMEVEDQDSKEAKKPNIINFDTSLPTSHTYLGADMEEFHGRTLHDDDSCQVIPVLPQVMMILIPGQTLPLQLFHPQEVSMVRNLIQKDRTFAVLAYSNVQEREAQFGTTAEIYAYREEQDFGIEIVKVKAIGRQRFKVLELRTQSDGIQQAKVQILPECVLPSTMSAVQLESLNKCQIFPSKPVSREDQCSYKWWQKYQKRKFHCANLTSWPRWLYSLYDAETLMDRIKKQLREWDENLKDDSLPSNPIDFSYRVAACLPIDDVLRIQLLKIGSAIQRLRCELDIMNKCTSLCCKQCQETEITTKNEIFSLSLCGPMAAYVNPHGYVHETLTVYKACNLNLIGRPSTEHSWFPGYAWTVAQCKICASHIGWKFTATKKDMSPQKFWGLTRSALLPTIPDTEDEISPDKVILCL
6×His-CRBN-DDB1 protein, sequence (Q16531 whole entry partner): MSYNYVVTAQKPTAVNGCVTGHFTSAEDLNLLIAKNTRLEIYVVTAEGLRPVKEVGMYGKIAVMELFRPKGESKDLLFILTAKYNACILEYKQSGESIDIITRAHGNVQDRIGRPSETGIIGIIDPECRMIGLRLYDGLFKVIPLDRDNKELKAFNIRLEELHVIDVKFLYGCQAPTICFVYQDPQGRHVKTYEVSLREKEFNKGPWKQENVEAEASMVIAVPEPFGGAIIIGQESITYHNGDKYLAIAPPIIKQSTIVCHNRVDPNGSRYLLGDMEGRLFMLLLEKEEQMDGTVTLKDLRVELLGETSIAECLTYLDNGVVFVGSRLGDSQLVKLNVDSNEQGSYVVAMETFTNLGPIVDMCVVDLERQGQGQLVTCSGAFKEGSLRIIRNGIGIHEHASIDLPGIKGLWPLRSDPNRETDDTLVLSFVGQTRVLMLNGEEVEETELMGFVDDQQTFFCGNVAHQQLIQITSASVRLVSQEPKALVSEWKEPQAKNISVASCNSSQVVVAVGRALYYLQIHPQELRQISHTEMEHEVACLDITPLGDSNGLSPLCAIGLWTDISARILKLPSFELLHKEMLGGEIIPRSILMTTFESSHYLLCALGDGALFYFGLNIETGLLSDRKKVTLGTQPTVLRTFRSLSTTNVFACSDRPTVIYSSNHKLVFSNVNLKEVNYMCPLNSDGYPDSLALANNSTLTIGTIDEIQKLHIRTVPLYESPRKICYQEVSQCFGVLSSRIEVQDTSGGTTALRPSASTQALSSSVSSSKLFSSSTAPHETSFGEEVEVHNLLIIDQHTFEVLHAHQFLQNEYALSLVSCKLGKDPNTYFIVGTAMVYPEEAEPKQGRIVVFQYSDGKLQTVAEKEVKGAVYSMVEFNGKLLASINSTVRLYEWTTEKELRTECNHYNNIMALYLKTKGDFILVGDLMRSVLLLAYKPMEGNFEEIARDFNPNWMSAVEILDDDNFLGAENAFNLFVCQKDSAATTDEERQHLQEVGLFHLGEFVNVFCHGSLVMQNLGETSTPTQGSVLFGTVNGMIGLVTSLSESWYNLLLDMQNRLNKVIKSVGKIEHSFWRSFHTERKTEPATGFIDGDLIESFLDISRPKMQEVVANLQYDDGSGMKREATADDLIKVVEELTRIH
GSPT1 HiBiT tag protein, sequence (P15170 whole entry): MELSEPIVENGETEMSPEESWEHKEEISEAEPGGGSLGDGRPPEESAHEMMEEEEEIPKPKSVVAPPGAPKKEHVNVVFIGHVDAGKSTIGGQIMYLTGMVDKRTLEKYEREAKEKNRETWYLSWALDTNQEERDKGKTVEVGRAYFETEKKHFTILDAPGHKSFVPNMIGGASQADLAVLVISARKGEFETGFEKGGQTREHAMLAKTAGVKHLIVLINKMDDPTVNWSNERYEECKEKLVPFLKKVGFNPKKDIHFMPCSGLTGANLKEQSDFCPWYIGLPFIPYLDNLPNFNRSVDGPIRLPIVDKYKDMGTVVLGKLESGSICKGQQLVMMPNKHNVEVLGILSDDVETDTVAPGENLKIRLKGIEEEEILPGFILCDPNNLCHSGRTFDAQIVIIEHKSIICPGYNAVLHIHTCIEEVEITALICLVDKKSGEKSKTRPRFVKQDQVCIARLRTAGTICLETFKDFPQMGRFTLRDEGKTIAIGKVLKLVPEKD
GSPT1 HiBiT tag protein, sequence (Q96SW2 whole entry): as the sequence (Q96SW2 whole entry) above
GSPT1 HiBiT tag protein, sequence (Q16531 whole entry partner): as the sequence (Q16531 whole entry partner) above

With `O=C1CCC(N2C(=O)c3ccc(NS(=O)(=O)c4cccc(C(F)(F)F)c4)cc3C2=O)C(=O)N1` (stereo not drawn) [Compound 4, N-(2-(2,6-dioxopiperidin-3-yl)-1,3-dioxoisoindolin-5-yl)-3-(trifluoromethyl)benzenesulfonamide], at 6×His-CRBN-DDB1 protein, the IC50 is below 1000 nM. Moreover, on GSPT1 HiBiT tag protein, the DC50 is above 10000 nM.

For `O=C1CCC(N2C(=O)c3ccc(NS(=O)(=O)c4ccc(C(F)(F)F)cc4)cc3C2=O)C(=O)N1` (stereo not drawn) [Compound 8, N-(2-(2,6-dioxopiperidin-3-yl)-1,3-dioxoisoindolin-5-yl)-4-(trifluoromethyl)benzenesulfonamide], the DC50 on GSPT1 HiBiT tag protein was above 10000 nM.

Take `O=C1CCC(N2C(=O)c3ccc(NS(=O)(=O)Cc4ccccc4)cc3C2=O)C(=O)N1` (stereo not drawn) [Compound 9, N-(2-(2,6-dioxopiperidin-3-yl)-1,3-dioxoisoindolin-5-yl)-1-phenylmethanesulfonamide]: the IC50 on 6×His-CRBN-DDB1 protein is 1000 to 10000 nM. The DC50 on GSPT1 HiBiT tag protein was above 10000 nM.

For the molecule `Cc1ccc(F)c(S(=O)(=O)Nc2ccc3c(c2)C(=O)N(C2CCC(=O)NC2=O)C3=O)c1` (stereo not drawn) [Compound 10, N-(2-(2,6-dioxopiperidin-3-yl)-1,3-dioxoisoindolin-5-yl)-2-fluoro-5-methylbenzenesulfonamide], the IC50 at 6×His-CRBN-DDB1 protein is below 1000 nM. The DC50 at GSPT1 HiBiT tag protein is above 10000 nM.

Take `O=C1CCC(N2C(=O)c3ccc(NS(=O)(=O)c4ccc(F)cc4)cc3C2=O)C(=O)N1` (stereo not drawn) [Compound 12, N-(2-(2,6-dioxopiperidin-3-yl)-1,3-dioxoisoindolin-5-yl)-4-fluorobenzenesulfonamide]: the IC50 at 6×His-CRBN-DDB1 protein is below 1000 nM. In addition, at GSPT1 HiBiT tag protein, the DC50 was above 10000 nM.

`Cc1ccccc1S(=O)(=O)Nc1ccc2c(c1)C(=O)N(C1CCC(=O)NC1=O)C2=O` (stereo not drawn) [Compound 15, N-(2-(2,6-dioxopiperidin-3-yl)-1,3-dioxoisoindolin-5-yl)-2-methylbenzenesulfonamide]: the IC50 on 6×His-CRBN-DDB1 protein was below 1000 nM. The DC50 at GSPT1 HiBiT tag protein was in the range of 1000 to 10000 nM.

In the case of `O=C1CCC(N2C(=O)c3ccc(NS(=O)(=O)c4ccc(Cl)cc4)cc3C2=O)C(=O)N1` (stereo not drawn) [Compound 16, 4-chloro-N-(2-(2,6-dioxopiperidin-3-yl)-1,3-dioxoisoindolin-5-yl)benzenesulfonamide], the IC50 at 6×His-CRBN-DDB1 protein is below 1000 nM. Also, the DC50 at GSPT1 HiBiT tag protein is above 10000 nM.

For the molecule `O=C1CCC(N2C(=O)c3ccc(NS(=O)(=O)c4ccc(F)c(Cl)c4)cc3C2=O)C(=O)N1` (stereo not drawn) [Compound 17, 3-chloro-N-(2-(2,6-dioxopiperidin-3-yl)-1,3-dioxoisoindolin-5-yl)-4-fluorobenzenesulfonamide], the IC50 on 6×His-CRBN-DDB1 protein is below 1000 nM. Besides, the DC50 at GSPT1 HiBiT tag protein was above 10000 nM.

In the case of `O=C1CCC(N2C(=O)c3ccc(NS(=O)(=O)c4cccs4)cc3C2=O)C(=O)N1` (stereo not drawn) [Compound 18, N-(2-(2,6-dioxopiperidin-3-yl)-1,3-dioxoisoindolin-5-yl)thiophene-2-sulfonamide], the IC50 on 6×His-CRBN-DDB1 protein was below 1000 nM. Further, the DC50 on GSPT1 HiBiT tag protein was above 10000 nM.

Take `Cc1ccc(S(=O)(=O)Nc2ccc3c(c2)C(=O)N(C2CCC(=O)NC2=O)C3=O)cc1` (stereo not drawn) [Compound 21, N-(2-(2,6-dioxopiperidin-3-yl)-1,3-dioxoisoindolin-5-yl)-4-methylbenzenesulfonamide]: the IC50 at 6×His-CRBN-DDB1 protein is 1000 to 10000 nM. Also, the DC50 on GSPT1 HiBiT tag protein is above 10000 nM.

In the case of `O=C1CCC(N2Cc3cc(NS(=O)(=O)c4ccccc4OC(F)(F)F)ccc3C2=O)C(=O)N1` (stereo not drawn) [Compound 56, N-(2-(2,6-dioxopiperidin-3-yl)-1-oxoisoindolin-5-yl)-2-(trifluoromethoxy)benzenesulfonamide], the IC50 on 6×His-CRBN-DDB1 protein is below 1000 nM.

For the molecule `O=C1CCC(N2C(=O)c3ccc(NS(=O)(=O)Cc4ccc(Cl)cc4)cc3C2=O)C(=O)N1` (stereo not drawn) [Compound 57, 1-(4-chlorophenyl)-N-(2-(2,6-dioxopiperidin-3-yl)-1,3-dioxoisoindolin-5-yi)methanesulfonamide], at 6×His-CRBN-DDB1 protein, the IC50 was below 1000 nM.

For `O=C1CCC(N2C(=O)c3ccc(NS(=O)(=O)c4ccc5c(c4)OCCO5)cc3C2=O)C(=O)N1` (stereo not drawn) [Compound 59, N-(2-(2,6-dioxopiperidin-3-yl)-1,3-dioxoisoindolin-5-yl)-2,3-dihydrobenzo[b][1,4]dioxine-6-sulfonamide], the IC50 on 6×His-CRBN-DDB1 protein was below 1000 nM.

With `O=C1CCC(N2C(=O)c3ccc(NS(=O)(=O)c4ccc(-c5ccccc5)cc4)cc3C2=O)C(=O)N1` (stereo not drawn) [Compound 62, N-(2-(2,6-dioxopiperidin-3-yl)-1,3-dioxoisoindolin-5-yl)(1,1′-biphenyl]-4-sulfonamide], the IC50 at 6×His-CRBN-DDB1 protein is below 1000 nM.

Regarding `O=C1CCC(N2C(=O)c3ccc(NS(=O)(=O)c4ccc5ccccc5c4)cc3C2=O)C(=O)N1` (stereo not drawn) [Compound 63, N-(2-(2,6-dioxopiperidin-3-yl)-1,3-dioxoisoindolin-5-yl)naphthalene-2-sulfonamide], at 6×His-CRBN-DDB1 protein, the IC50 was below 1000 nM. Further, the DC50 on GSPT1 HiBiT tag protein was above 10000 nM.

On to `N#Cc1ccc(S(=O)(=O)Nc2ccc3c(c2)C(=O)N(C2CCC(=O)NC2=O)C3=O)cc1` (stereo not drawn) [Compound 64, 4-cyano-N-(2-(2,6-dioxopiperidin-3-yl)-1,3-dioxoisoindolin-5-yl)benzenesulfonamide], for which the IC50 on 6×His-CRBN-DDB1 protein is below 1000 nM.

Consider `O=C1CCC(N2C(=O)c3ccc(NS(=O)(=O)c4ccccc4Br)cc3C2=O)C(=O)N1` (stereo not drawn) [Compound 65, 2-bromo-N-(2-(2,6-dioxopiperidin-3-yl)-1,3-dioxoisoindolin-5-yl)benzenesulfonamide], for which the IC50 at 6×His-CRBN-DDB1 protein was below 1000 nM.

Regarding `O=C1CCC(N2C(=O)c3ccc(NS(=O)(=O)c4cc(F)c(Cl)cc4F)cc3C2=O)C(=O)N1` (stereo not drawn) [Compound 66, 4-chloro-N-(2-(2,6-dioxopiperidin-3-yl)-1,3-dioxoisoindolin-5-yl)-2,5-difluorobenzenesulfonamide], the IC50 at 6×His-CRBN-DDB1 protein was below 1000 nM.

For the molecule `Cc1cc(C)c(S(=O)(=O)Nc2ccc3c(c2)C(=O)N(C2CCC(=O)NC2=O)C3=O)c(C)c1` (stereo not drawn) [Compound 68, N-(2-(2,6-dioxopiperidin-3-yl)-1,3-dioxoisoindolin-5-yl)-2,4,6-trimethylbenzenesulfonamide], on 6×His-CRBN-DDB1 protein, the IC50 is below 1000 nM.

Turning to `O=C1CCC(N2C(=O)c3ccc(NS(=O)(=O)c4ccc(Cl)c(C(F)(F)F)c4)cc3C2=O)C(=O)N1` (stereo not drawn) [Compound 70, 4-chloro-N-(2-(2,6-dioxopiperidin-3-yl)-1,3-dioxoisoindolin-5-yl)-3-(trifluoromethyl)benzenesulfonamide], the DC50 at GSPT1 HiBiT tag protein is above 10000 nM.

Take `O=C1CCC(N2C(=O)c3ccc(NS(=O)(=O)c4ccc(F)cc4F)cc3C2=O)C(=O)N1` (stereo not drawn) [Compound 74, N-(2-(2,6-dioxopiperidin-3-yl)-1,3-dioxoisoindolin-5-yl)-2,4-difluorobenzenefylfonamide]: the IC50 at 6×His-CRBN-DDB1 protein was in the range of 1000 to 10000 nM.

As for `CCOc1ccccc1S(=O)(=O)Nc1ccc2c(c1)C(=O)N(C1CCC(=O)NC1=O)C2=O` (stereo not drawn) [Compound 79, N-(2-(2,6-dioxopiperidin-3-yl)-1,3-dioxoisoindolin-5-yl)-2-ethoxybenzenesulfonamide], the IC50 on 6×His-CRBN-DDB1 protein was in the range of 1000 to 10000 nM.

Take `O=C1CCC(N2C(=O)c3ccc(NS(=O)(=O)c4ccc(C5CCCCC5)cc4)cc3C2=O)C(=O)N1` (stereo not drawn) [Compound 80, 4-cyclohexyl-N-(2-(2,6-dioxopiperidin-3-yl)-1,3-dioxoisoindolin-5-yl)benzenesulfonamide]: the IC50 at 6×His-CRBN-DDB1 protein fell in the range of 1000 to 10000 nM.

As to `Cc1cc(S(=O)(=O)Nc2ccc3c(c2)C(=O)N(C2CCC(=O)NC2=O)C3=O)c(C)o1` (stereo not drawn) [Compound 84, N-(2-(2,6-dioxopiperidin-3-yl)-1,3-dioxoisoindolin-5-yl)-2,5-dimethylfuran-3-sulfonamide], the half-maximal inhibitory concentration (IC50) at 6×His-CRBN-DDB1 protein was below 1000 nM.

Consider `O=C1CCC(N2C(=O)c3ccc(NS(=O)(=O)c4cccnc4)cc3C2=O)C(=O)N1` (stereo not drawn) [Compound 85, N-(2-(2,6-dioxopiperidin-3-yl)-1,3-dioxoisoindolin-5-yl)pyridine-3-sulfonamide], for which, on 6×His-CRBN-DDB1 protein, the IC50 lay in the range of 1000 to 10000 nM.

Take `O=C1CCC(N2C(=O)c3ccc(NS(=O)(=O)c4ccc5ncsc5c4)cc3C2=O)C(=O)N1` (stereo not drawn) [Compound 86, N-(2-(2,6-dioxopiperidin-3-yl)-1,3-dioxoisoindolin-5-yl)benzo[d]thiazole-6-sulfonamide]: the IC50 on 6×His-CRBN-DDB1 protein is below 1000 nM.

Consider `O=C1CCC(N2C(=O)c3ccc(NS(=O)(=O)c4cccc(Cl)c4Cl)cc3C2=O)C(=O)N1` (stereo not drawn) [Compound 88, 2,3-dichloro-N-(2-(2,6-dioxopiperidin-3-yl)-1,3-dioxoisoindolin-5-yl)benzenesulfonamide], for which the IC50 on 6×His-CRBN-DDB1 protein is below 1000 nM.

Turning to `O=C1CCC(N2C(=O)c3ccc(NS(=O)(=O)c4ccco4)cc3C2=O)C(=O)N1` (stereo not drawn) [Compound 91, N-(2-(2,6-dioxopiperidin-3-yl)-1,3-dioxoisoindolin-5-yl)furan-2-sulfonamide], the IC50 on 6×His-CRBN-DDB1 protein was below 1000 nM.

On to `Cc1ccc(S(=O)(=O)Nc2ccc3c(c2)C(=O)N(C2CCC(=O)NC2=O)C3=O)cc1C` (stereo not drawn) [Compound 93, N-(2-(2,6-dioxopiperidin-3-yl)-1,3-dioxoisoindolin-5-yl)-3,4-dimethylbenzenesulfonamide], for which, at 6×His-CRBN-DDB1 protein, the IC50 was below 1000 nM.
